Tests used:
Experiment in all cases: MIC determination by broth microdilution (MHB-CA, CLSI)
Type in all cases: cell-based
E. aerogenes = details: strain 36F8
Method: (§1) Determination of MIC values were performed by broth microdilution in Cation-Adjusted Mueller-Hinton broth (MHB-CA) according to the CLSI guidelines (Clinical and Laboratory Standards Institute). Polymyxin B and colistin (Sigma-Aldrich, Saint-Louis) were tested with or without Tween 80 over a range dilution from 0.12 to 128 µg/ml. The surfactant Tween 80, at a final concentration of 0.002%, prevents the binding of polymyxins to multi-array plastic panel. Actually, the use of Tween for determination of MIC of polymyxins is still debatable. MHB-CA broth and 5.10^5 CFU/ml of each tested strain were distributed in each well. Following the EUCAST breakpoints, strains were characterized as susceptible or resistant to polymyxins.

K. oxytoca = details: strain C24
Method: as §1

P. mirabilis = details: strain Pmir
Method: as §1

S. marcescens = details: strain Smar
Method: as §1

E. cloacae = test system: E. cloacae
Method: as §1

H. alvei = details: strain ER
Method: as §1

P. aeruginosa = test system: P. aeruginosa
Method: as §1

K. pneumoniae = test system: K. pneumoniae
Method: as §1

C. freundii = test system: C. freundii
Method: as §1

P. stuartii = details: strain Pstu
Method: as §1

B. cepacia = details: strain Bcep
Method: as §1

E. coli = test system: E. coli
Method: as §1

M. morganii = details: strain Mmor
Method: as §1

S. maltophilia = test system: S. maltophilia
Method: as §1

Measured: MIC

colistin
2 µg/mL: P. aeruginosa; strain 38J8, Without Tween80 | P. aeruginosa; strain C133, Without Tween80
4 µg/mL: E. coli; strain 28509, With Tween80 | E. coli; strain 28509, Without Tween80 | E. coli; strain 30742, With Tween80
32 µg/mL: E. cloacae; strain C28, With Tween80 | E. cloacae; strain C28, Without Tween80 | K. pneumoniae; strain 13G2, With Tween80 | K. pneumoniae; strain 18J1, With Tween80 | K. pneumoniae; strain 18J1, Without Tween80 | K. pneumoniae; strain 1515, With Tween80 | K. pneumoniae; strain C3, With Tween80 | K. pneumoniae; strain C3, Without Tween80 | K. pneumoniae; strain C22, Without Tween80 | K. pneumoniae; strain C25, With Tween80 | K. pneumoniae; strain T5, Without Tween80 | S. maltophilia; strain SmA51, Without Tween80
64 µg/mL: K. oxytoca; With Tween80 | K. oxytoca; Without Tween80 | K. pneumoniae; strain 12E2, With Tween80 | K. pneumoniae; strain 12E2, Without Tween80 | K. pneumoniae; strain 13G2, Without Tween80 | K. pneumoniae; strain 1118, With Tween80 | K. pneumoniae; strain 1118, Without Tween80 | K. pneumoniae; strain 1515, Without Tween80 | K. pneumoniae; strain C11, Without Tween80 | K. pneumoniae; strain C12, With Tween80 | K. pneumoniae; strain C12, Without Tween80 | K. pneumoniae; strain C16, With Tween80 | K. pneumoniae; strain C16, Without Tween80 | K. pneumoniae; strain C22, With Tween80 | K. pneumoniae; strain C25, Without Tween80 | K. pneumoniae; strain T4, With Tween80 | K. pneumoniae; strain T4, Without Tween80 | K. pneumoniae; strain T5, With Tween80
0.25 µg/mL: P. aeruginosa; strain C131, With Tween80 | K. pneumoniae; strain 36A7, Without Tween80 | C. freundii; strain C136, Without Tween80 | E. coli; strain 36D7, Without Tween80 | E. coli; strain 38D6, Without Tween80 | E. coli; strain ATCC 25922, Without Tween80
128 µg/mL: K. pneumoniae; strain 75b, With Tween80 | K. pneumoniae; strain 75b, Without Tween80 | K. pneumoniae; strain C1, With Tween80 | K. pneumoniae; strain C1, Without Tween80 | K. pneumoniae; strain C11, With Tween80 | K. pneumoniae; strain C21, With Tween80 | K. pneumoniae; strain C21, Without Tween80 | K. pneumoniae; strain C26, With Tween80 | K. pneumoniae; strain C26, Without Tween80 | K. pneumoniae; strain Sa, Without Tween80 | K. pneumoniae; strain T1b, With Tween80 | K. pneumoniae; strain T1b, Without Tween80
8 µg/mL: E. coli; strain 27563, With Tween80 | E. coli; strain 27837, With Tween80 | E. coli; strain 27850, With Tween80 | E. coli; strain 27852, With Tween80 | E. coli; strain 27852, Without Tween80 | E. coli; strain 30742, Without Tween80
>128 µg/mL: P. mirabilis; With Tween80 | P. mirabilis; Without Tween80 | S. marcescens; With Tween80 | S. marcescens; Without Tween80 | E. cloacae; strain HM, With Tween80 | E. cloacae; strain HM, Without Tween80 | K. pneumoniae; strain BICb, With Tween80 | K. pneumoniae; strain BICb, Without Tween80 | K. pneumoniae; strain C7, With Tween80 | K. pneumoniae; strain C7, Without Tween80 | K. pneumoniae; strain C27, With Tween80 | K. pneumoniae; strain C27, Without Tween80 | K. pneumoniae; strain Sa, With Tween80 | P. stuartii; With Tween80 | P. stuartii; Without Tween80 | B. cepacia; With Tween80 | B. cepacia; Without Tween80 | M. morganii; With Tween80 | M. morganii; Without Tween80 | S. maltophilia; strain Sm2, With Tween80 | S. maltophilia; strain Sm2, Without Tween80
0.12 µg/mL: E. aerogenes; With Tween80 | E. aerogenes; Without Tween80 | E. cloacae; strain 38A10, With Tween80 | E. cloacae; strain 38A10, Without Tween80 | E. cloacae; strain C129, With Tween80 | E. cloacae; strain C129, Without Tween80 | E. cloacae; strain C144, With Tween80 | E. cloacae; strain C144, Without Tween80 | P. aeruginosa; strain ATCC 27853, With Tween80 | P. aeruginosa; strain C111, With Tween80 | K. pneumoniae; strain 36A4, With Tween80 | K. pneumoniae; strain 36A4, Without Tween80 | K. pneumoniae; strain 36A5, With Tween80 | K. pneumoniae; strain 36A5, Without Tween80 | K. pneumoniae; strain 36A7, With Tween80 | K. pneumoniae; strain 38B7, With Tween80 | K. pneumoniae; strain C112, With Tween80 | K. pneumoniae; strain C115, With Tween80 | K. pneumoniae; strain C115, Without Tween80 | K. pneumoniae; strain C130, With Tween80 | K. pneumoniae; strain C132, With Tween80 | K. pneumoniae; strain C132, Without Tween80 | K. pneumoniae; strain Kp OmpK3 5-OmpK3 6-, With Tween80 | K. pneumoniae; strain Kp OmpK3 5-OmpK3 6-, Without Tween80 | C. freundii; strain 38B2, With Tween80 | C. freundii; strain 38B2, Without Tween80 | C. freundii; strain C136, With Tween80 | E. coli; strain 36A6, With Tween80 | E. coli; strain 36A6, Without Tween80 | E. coli; strain 36D7, With Tween80 | E. coli; strain 38D6, With Tween80 | E. coli; strain ATCC 25922, With Tween80 | E. coli; strain C140, With Tween80 | E. coli; strain C140, Without Tween80 | E. coli; strain Eco OmpC-OmpF-, With Tween80 | E. coli; strain Eco OmpC-OmpF-, Without Tween80
0.5 µg/mL: P. aeruginosa; strain 38J8, With Tween80 | P. aeruginosa; strain ATCC 27853, Without Tween80 | P. aeruginosa; strain C133, With Tween80 | K. pneumoniae; strain 38B7, Without Tween80 | K. pneumoniae; strain C112, Without Tween80 | K. pneumoniae; strain C130, Without Tween80
1 µg/mL: P. aeruginosa; strain C111, Without Tween80 | P. aeruginosa; strain C131, Without Tween80
16 µg/mL: H. alvei; With Tween80 | H. alvei; Without Tween80 | K. pneumoniae; strain AF1b, With Tween80 | K. pneumoniae; strain AF1b, Without Tween80 | E. coli; strain 27563, Without Tween80 | E. coli; strain 27837, Without Tween80 | E. coli; strain 27850, Without Tween80 | S. maltophilia; strain SmA51, With Tween80
